One experiment deals with beef liver ALP. As to the kind of experiment: Solution assay for alkaline phosphatase (fluorescence). It counts as biochemical. To be noted: excitation 535 nm, emission 580 nm. The method, then:
A solution was prepared using the substrate of Example 1 (10^-5 molar), magnesium acetate ([…]) and TRIS buffer (0.1 molar, pH 8.5). One milliliter of this solution was placed in each of two test cells. To one cell was added beef liver ALP (100 μl, 10^-5 molar). No ALP was placed in the second cell.
The relative fluorescence of the solution in the test cell containing the ALP-hydrolyzed substrate was measured at an excitation of 535 nm and an emission of 580 nm. […]

Experiment [1] has as its system calf intestine alkaline phosphatase. The experiment can be described thus: Kinetic study of alkaline phosphatase with substrate (double reciprocal plot). The experiment is classed as biochemical. As to conditions: 540 nm, substrate 0.1-10 mmolar, enzyme 0.01 I.U./ml, sodium carbonate 100 mmolar, pH 10. An excerpt:
The magnesium salt substrate prepared in Example 1 was used to determine reaction rates and kinetic parameters for alkaline phosphatase at 540 nm. The study was done by using the substrate (concentration range 0.1 mmolar to 10 mmolar), calf intestine alkaline phosphatase (0.01 I.U./ml), sodium carbonate (100 mmolar, pH 10), magnesium chloride (1 mmolar) and zinc perchlorate (1 mmolar). From the data obtained, a double reciprocal plot was drawn.

Structures are written as SMILES. Where a name gives a salt, the structure may show the parent alone.

The values below come from US4803157A, “Hydrolyzable fluorescent substrates for phosphatases and analytical use thereof” (Eastman Kodak Company, priority 1986, dated 1989).

As a reminder, the Km is the substrate concentration at which the rate is half of its maximum.

Take `O=C1C=Cc2ccc(OP(=O)(O)O)c3cccc1c23` [substrate of Example 1, PHENALENONE-6-PHOSPHATE]: the “relative fluorescence of unhydrolyzed substrate” value in the experiment on beef liver ALP (no ALP added) is on record as “Minimal fluorescence”. Also, the “relative fluorescence of ALP-hydrolyzed substrate” value in the experiment with beef liver ALP (substrate 10^-5 molar, TRIS 0.1 molar pH 8.5, with beef liver ALP) is reported as “rapid generation of fluorescence”.

Take `O=C1C=Cc2ccc(OP(=O)(O)O)c3cccc1c23` [phenalenone-6-phosphate magnesium salt]: the “rate of reaction (Vmax)” value in experiment [1] was 0.029 absorbance (A) units/minute. Moreover, in experiment [1] (MgCl2 1 mmolar, zinc perchlorate 1 mmolar, read-out: Michaelis constant (Km)), the Km was found to be 1400 µM.
